In paper PMC6005341, “Identification of “sarsasapogenin-aglyconed” timosaponins as novel Aβ-lowering modulators of amyloid precursor protein processing” (Chemical Science, 2016):
Like-named read-outs stand apart in the source and are kept apart here.

Key:
[1] = system: Aβ42 production in N2A-APPswe cells; test: Aβ42 in conditioned medium of N2A-APPswe cells by ELISA, 18 h treatment; assay type: cell-based; settings: for IC50: mean ± standard deviation, n ≥ 3
Excerpt: Sigma-Aldrich Chemical Co. unless otherwise specified. SSG (1) was purchased from Wako Pure Chemical Industries, Ltd. Diosgenin (6), Dioscin (9), Polyphyllin D (10), Timosaponin BI (22) and Timosaponin BII (23) were purchased from Chengdu Must Bio-Technology Co.
Ltd. Yamogenin (7) was bought from Ambinter c/o Greenpharma while Smilagenin (24) was bought from Steraloids Inc. Substances dissolved in DMSO as stock solutions. Cell culture medium constituents were purchased from Life Technologies, Inc.
Cell culture: Neuro-2A cells expressing Swedish mutants of APP (N2A-APPswe provided by Prof. Yifan Han, The Hong Kong Polytechnic University)1 was cultured in minimal essential medium with 2 mM glutamine, 2 mM pyruvate and 10% fetal bovine serum. […]
(§1) Aβ ELISA: Aβ concentrations in conditioned medium were assayed using ELISA kits for […]

[2] = system: Aβ40 and Aβ38 in N2A-APPswe cells; test: Aβ40 and Aβ38 in conditioned medium of N2A-APPswe cells by ELISA; assay type: cell-based; settings: compared with Aβ42
Method: as §1

[3] = system: Neuro-2A cells; test: Neurite outgrowth, type III β-tubulin immunostaining; assay type: cell-based; settings: at concentrations that lower Aβ production, 18 h
Method: Immunofluorescence examination of neurite outgrowth: Neuro-2A cells were seeded at 1×105 per glass bottom dishes. After treatment, cells were fixed with 4% paraformaldyde for 10 min, permeabilized with 0.1% Triton X-100, and then blocked with 1% BSA in PBS.
The cells were incubated with monoclonal antibody raised against type III β-tubulin (Sigma) for 1 h followed by Alexa488 conjugated secondary antibody. Neurite morphology was examined under fluorescence microscope. […]

[4] = system: brain Aβ / amyloid in APPswe transgene; settings: oral 25 mg/kg for 18 h, ref FASEB J. (2006) 20: E599; cited from earlier work
[5] = N2a-APPswe, read-out: IC50 in lowering Aβ42 production, N2A-APPswe cells
[6] = N2A-APPswe cells, read-out: IC50 in lowering Aβ42 production

Structure (SMILES) | IC50 [1, 5] | Aβ42-lowering effect (in words) ([1]; N2A-APPswe cells) | further results
C[C@@H]1CC[C@@]2(OC1)O[C@H]1C[C@H]3[C@@H]4C[C@H](O)[C@H]5C[C@@H](O)CC[C@]5(C)[C@H]4CC[C@]3(C)[C@H]1[C@@H]2C [5α-H, 6α-OH diosgenin (15), 5α-H, 6α-OH diosgenin] | > 100 µM |  | 
C[C@H]1CC[C@@]2(OC1)O[C@H]1C[C@H]3[C@@H]4C[C@H](O)[C@H]5C[C@@H](O)CC[C@]5(C)[C@H]4CC[C@]3(C)[C@H]1[C@@H]2C [5α-H, 6α-OH yamogenin (17), 5α-H, 6α-OH yamogenin] | > 100 µM |  | 
C[C@@H]1CC[C@@]2(OC1)O[C@H]1C[C@H]3[C@@H]4C[C@@H](O)[C@@H]5C[C@@H](O)CC[C@]5(C)[C@H]4CC[C@]3(C)[C@H]1[C@@H]2C [5β-H, 6β-OH diosgenin (16), 5β-H, 6β-OH diosgenin] | > 100 µM | ineffective | 
C[C@H]1CC[C@@]2(OC1)O[C@H]1C[C@H]3[C@@H]4C[C@@H](O)[C@@H]5C[C@@H](O)CC[C@]5(C)[C@H]4CC[C@]3(C)[C@H]1[C@@H]2C [5β-H, 6β-OH yamogenin (18), 5β-H, 6β-OH yamogenin] | 45 ± 4 µM |  | 
C[C@H]1CC[C@@]2(OC1)O[C@H]1C[C@H]3[C@@H]4CC[C@@H]5C[C@@H](O[C@@H]6O[C@H](CO)[C@@H](O)[C@H](O)[C@H]6O)CC[C@]5(C)[C@H]4CC[C@]3(C)[C@H]1[C@@H]2C [AA (5), Asparagoside A] | ~6 µM | effectively lowered | effect on Aβ40 and Aβ38 [2]: much smaller effect
C[C@@H]1CC[C@@]2(OC1)O[C@H]1C[C@H]3[C@@H]4CC=C5C[C@@H](O[C@@H]6O[C@H](CO)[C@H](O)[C@H](O)[C@H]6O)CC[C@]5(C)[C@H]4CC[C@]3(C)[C@H]1[C@@H]2C [Capsicoside A3 (8), capsicoside A3] |  |  | IC50 [1, 6]: > 100 µM
C[C@@H]1CC[C@@]2(OC1)O[C@H]1C[C@H]3[C@@H]4CC=C5C[C@@H](O[C@@H]6O[C@H](CO)[C@@H](O[C@@H]7O[C@@H](C)[C@H](O)[C@@H](O)[C@H]7O)[C@H](O)[C@H]6O[C@@H]6O[C@@H](C)[C@H](O)[C@@H](O)[C@H]6O)CC[C@]5(C)[C@H]4CC[C@]3(C)[C@H]1[C@@H]2C [Compound 9, dioscin] |  | insignificant Aβ42-lowering effects | 
C[C@@H]1CC[C@@]2(OC1)O[C@H]1C[C@H]3[C@@H]4CC[C@H]5C[C@@H](O[C@@H]6O[C@H](CO)[C@@H](O[C@@H]7O[C@@H](C)[C@H](O)[C@@H](O)[C@H]7O)[C@H](O)[C@H]6O[C@@H]6O[C@@H](C)[C@H](O)[C@@H](O)[C@H]6O)CC[C@]5(C)[C@H]4CC[C@]3(C)[C@H]1[C@@H]2C [Compound 11, dihydrodioscin] |  | insignificant Aβ42-lowering effects | 
C[C@H](CO)CC[C@H]1O[C@H]2C[C@H]3[C@@H]4CC[C@@H]5C[C@@H](O)CC[C@]5(C)[C@H]4CC[C@]3(C)[C@H]2[C@@H]1C [Dihydrosarsasapogenin (21), dihydrosarsasapogenin] | > 100 µM |  | 
C[C@@H]1CC[C@@]2(OC1)O[C@H]1C[C@H]3[C@@H]4CC=C5C[C@@H](O)CC[C@]5(C)[C@H]4CC[C@]3(C)[C@H]1[C@@H]2C [Diosgenin (6), diosgenin] |  | no effect | IC50 [1, 6]: > 100 µM; neurite outgrowth [3]: not shared
C[C@H]1CC[C@@]2(OC1)O[C@H]1C[C@H]3[C@@H]4CC[C@@H]5C[C@H](O)CC[C@]5(C)[C@H]4CC[C@]3(C)[C@H]1[C@@H]2C [Episarsasapogenin (20), episarsasapogenin] | > 100 µM | inactive | neurite outgrowth [3]: not shared
CC(C)[C@@H](C)/C=C/[C@@H](C)[C@H]1CC[C@H]2C3=CC=C4C[C@@H](O)CC[C@]4(C)[C@H]3CC[C@]12C [Ergosterol, reference compound] |  |  | IC50 [1, 6]: > 100 µM
CC1CCC2(OC1)OC1CC3C4CCC5CC(OCC(=O)O)CCC5(C)C4CCC3(C)C1C2C (stereo not shown) [Ethereal SSG (29), ethereal SSG] | 27 ± 8 µM |  | 
C[C@H]1CC[C@@]2(OC1)O[C@H]1C[C@H]3[C@@H]4CC[C@H]5C[C@@H](O)CC[C@]5(C)[C@H]4CC[C@]3(C)[C@H]1[C@@H]2C [Neotigogenin (14), neotigogenin] | > 100 µM | ineffective | neurite outgrowth [3]: not shared
CC(C)=CCC[C@](C)(O)[C@H]1CC[C@]2(C)[C@@H]1[C@H](O)C[C@@H]1[C@@]3(C)CC[C@H](O[C@@H]4O[C@H](CO)[C@@H](O)[C@H](O)[C@H]4O[C@@H]4O[C@H](CO)[C@@H](O)[C@H](O)[C@H]4O)C(C)(C)[C@@H]3CC[C@]12C [Rg3] |  |  | Brain Aβ1-42 reduced by [4]: 30%
C[C@H]1CC[C@@]2(OC1)O[C@H]1C[C@H]3[C@@H]4CC[C@@H]5CC(=O)CC[C@]5(C)[C@H]4CC[C@]3(C)[C@H]1[C@@H]2C [Sarsasapogenone (19), sarsasapogenone] | 50 ± 5 µM | comparable effect to 1 | 
C[C@@H]1CC[C@@]2(OC1)O[C@H]1C[C@H]3[C@@H]4CC[C@@H]5C[C@@H](O)CC[C@]5(C)[C@H]4CC[C@]3(C)[C@H]1[C@@H]2C [Smilagenin (24), smilagenin] | > 100 µM | ineffective | neurite outgrowth [3]: not shared
C[C@H]1CC[C@@]2(OC1)O[C@H]1C[C@H]3[C@@H]4CC[C@@H]5C[C@@H](O[C@@H]6O[C@H](CO)[C@H](O[C@@H]7O[C@H](CO)[C@@H](O)[C@H](O)[C@H]7O)[C@H](O)[C@H]6O[C@@H]6O[C@H](CO)[C@@H](O)[C@H](O)[C@H]6O)CC[C@]5(C)[C@H]4CC[C@]3(C)[C@H]1[C@@H]2C [TAV (4), timosaponin A V] | ~4.2 µM | effectively lowered | effect on Aβ40 and Aβ38 [2]: much smaller effect
C[C@@H]1CC[C@@]2(OC1)O[C@H]1C[C@H]3[C@@H]4CC[C@H]5C[C@@H](O)CC[C@]5(C)[C@H]4CC[C@]3(C)[C@H]1[C@@H]2C [Tigogenin (13), tigogenin] | > 100 µM | ineffective | neurite outgrowth [3]: not shared
CO[C@]1(CC[C@H](C)CO[C@@H]2O[C@H](CO)[C@@H](O)[C@H](O)[C@H]2O)O[C@H]2C[C@H]3[C@@H]4CC[C@@H]5C[C@@H](O[C@@H]6O[C@H](CO)[C@H](O)[C@H](O)[C@H]6O[C@@H]6O[C@H](CO)[C@@H](O)[C@H](O)[C@H]6O)CC[C@]5(C)[C@H]4CC[C@]3(C)[C@H]2[C@@H]1C [Timosaponin B I (22), Timosaponin B I] | > 100 µM | ineffective | 
C[C@H]1CC[C@@]2(OC1)O[C@H]1C[C@H]3[C@@H]4CC=C5C[C@@H](O)CC[C@]5(C)[C@H]4CC[C@]3(C)[C@H]1[C@@H]2C [Yamogenin (7), yamogenin] |  | no effect | IC50 [1, 6]: > 100 µM; neurite outgrowth [3]: not shared
COC1OC(CNC(=O)COC2CCC3(C)C(CCC4C3CCC3(C)C4CC4OC5(CCC(C)CO5)C(C)C43)C2)C(O)C(O)C1O (stereo not drawn) [α-OMe SSG (32), α-OMe SSG] | 7.2 ± 2.2 µM |  | 
COC1OC(Cn2cc(COC3CCC4(C)C(CCC5C4CCC4(C)C5CC5OC6(CCC(C)CO6)C(C)C54)C3)nn2)C(O)C(O)C1O (stereo not drawn) [α-OMe triazole SSG (28), α-OMe triazole SSG] | 6.5 ± 2.1 µM |  | 
COC1OC(CNC(=O)COC2CCC3(C)C(CCC4C3CCC3(C)C4CC4OC5(CCC(C)CO5)C(C)C43)C2)C(O)C(O)C1O (stereo not drawn) [β-OMe SSG (33), β-OMe SSG] |  |  | IC50 ([1]; read-out: IC50 in lowering Aβ42 production, N2A-APPswe cells): 9.3 ± 3.5 µM
